Measured values taken from patent US20260265329A1, “POLYPEPTIDE AND DERIVATIVE THEREOF, COMPOSITION, AND USE THEREOF” (HANGZHOU SCIWIND BIOSCIENCES CO., LTD., priority 2023, published 2026).
Starred links: 1 amine or outer side, 2 acyl side, 3 side chain; linkers in the order of their positions; H or OH if unused. Non-standard residues stand in square brackets, D forms with d. Residues, ends and D or L forms follow the SMILES beside them. *: point of attachment. C20 diacid = O=C(O)CCCCCCCCCCCCCCCCCCC(=O)*; C16 diacid = O=C(O)CCCCCCCCCCCCCCC(=O)*; γGlu = O=C(O)[C@H](CCC(=O)[*:2])N[*:1]; Hyp = O=C(O)[C@@H]1C[C@@H](O)CN1; AEEA = NCCOCCOCC(=O)O; Inp = O=C(O)C1CCNCC1

Target: T1, human amylin receptors (Homo sapiens, UniProt O60896+P30988)
T1 construct: host or cells: CHO-K1/Ga15/AMY3 cells, further stably transfected with a CRE-luciferase plasmid
T1 sequence (P30988 25-474): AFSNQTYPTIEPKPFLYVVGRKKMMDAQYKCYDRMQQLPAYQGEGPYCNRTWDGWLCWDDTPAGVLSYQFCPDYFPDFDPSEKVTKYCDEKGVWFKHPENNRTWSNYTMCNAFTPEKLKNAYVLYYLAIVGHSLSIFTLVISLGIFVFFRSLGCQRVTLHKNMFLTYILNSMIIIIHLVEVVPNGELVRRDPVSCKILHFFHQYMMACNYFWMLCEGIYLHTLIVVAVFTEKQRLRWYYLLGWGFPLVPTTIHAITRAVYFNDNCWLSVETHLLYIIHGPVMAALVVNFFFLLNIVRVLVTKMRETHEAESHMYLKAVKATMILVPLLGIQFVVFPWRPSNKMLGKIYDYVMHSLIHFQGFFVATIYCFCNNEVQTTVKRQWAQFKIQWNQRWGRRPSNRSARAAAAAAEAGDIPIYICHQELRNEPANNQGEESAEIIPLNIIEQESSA
T1 sequence (O60896 24-148 partner): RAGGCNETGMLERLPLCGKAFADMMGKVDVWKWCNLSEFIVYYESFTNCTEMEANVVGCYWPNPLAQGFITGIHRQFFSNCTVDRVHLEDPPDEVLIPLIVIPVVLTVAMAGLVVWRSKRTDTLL
Experiment: Luciferase assay in stably transfected amylin receptor/CRE-luc CHO cell line
Assay type: cell-based
Conditions: for Relative activity: EC50 ratio of Cagrilintide to the compound, Cagrilintide 100%; for EC50: amylin receptor/CRE-luc CHO cells, 24 hours incubation, luminescence
Excerpt: The objective of this assay is to test the potency of derivatives of polypeptides of the present application on human amylin receptors in vitro using a luciferase assay. Using the standard protocol, CHO-K1/Ga15/AMY3 cells (purchased from GenScript, with the calcitonin receptor and the receptor activity modifying peptide (RAMP) constructed already) were transfected with a plasmid containing a luciferase expression cassette driven by multiple copies of cAMP response elements (CREs). The cells were cultured in an F12 medium containing 200 μg/mL Zeocin, 2 μg/mL puromycin, 100 μg/mL hygromycin, and 400 μg/mL G418 to afford a stably transfected amylin receptor/CRE-luc cell line. The lyophilized powder from Example 1 was dissolved in 20 mM phosphate buffer solution with a pH of 7.0, and diluted in a growth medium (F12 culture medium containing 10% FBS) to give a derivative sample with an initial concentration of 10 nM, which was then subjected to a 5-fold serial dilution in the growth medium to obtain seven samples with concentrations between […]. In each well of a white 96-well plate, 50 μL of the tested sample solution was added with a corresponding concentration. The stably transfected amylin receptor/CRE-luc CHO cells were resuspended in the growth medium at a certain density, and 50 μL of the cell suspension was added at a density of about 20000 cells per well to the white 96-well plate containing the tested sample solution. After incubation of 24 hours at 37° C. and 5% CO2, 100 μL of a Luciferase substrate was added to each well, incubated for 3 minutes, and finally was tested for luminescence on SpectraMax L (Molecular Devices) with the software SoftMax Pro 7.0.3 GxP.

SMILES | Relative activity [%] | EC50 [nM]
CC[C@H](C)[C@H](NC(=O)[C@H](CC(=O)O)NC(=O)[C@H](CCCNC(=N)N)NC(=O)[C@H](CC(=O)O)NC(=O)[C@H](CCCNC(=N)N)NC(=O)[C@H](CC(=O)O)NC(=O)[C@@H](NC(=O)[C@H](Cc1ccccc1)NC(=O)[C@H](Cc1c[nH]cn1)NC(=O)[C@H](CCCNC(=N)N)NC(=O)[C@H](CC(C)C)NC(=O)[C@H](Cc1ccccc1)NC(=O)[C@H](CC(=O)O)NC(=O)[C@H](C)NC(=O)[C@H](CC(C)C)NC(=O)[C@H](CCCNC(=N)N)NC(=O)[C@H](CCC(N)=O)NC(=O)[C@@H](NC(=O)[C@H](C)NC(=O)[C@H](C)NC(=O)[C@@H](NC(=O)[C@H](CO)NC(=O)[C@H](CC(C)C)NC(=O)[C@H](CCC(N)=O)NC(=O)[C@H](CO)NC(=O)[C@H](C)NC(=O)C1CCN(C(=O)CCCCCCCCCCCCCCCCCCC(=O)O)CC1)[C@@H](C)O)[C@@H](C)O)[C@@H](C)O)C(=O)N[C@@H](CC(C)C)C(=O)N1CCC[C@H]1C(=O)N1CCC[C@H]1C(=O)N[C@H](C(=O)N[C@@H](CC(N)=O)C(=O)N[C@H](C(=O)NCC(=O)N[C@@H](CO)C(=O)N[C@@H](CC(N)=O)C(=O)N[C@H](C(=O)N1CCC[C@H]1C(N)=O)[C@@H](C)O)C(C)C)[C@@H](C)O [M15] ({C20 diacid-Inp}-ASQLSTAATQRLADFLRHFTDRDRDILPPTNVGSNTP-NH2) | 81 | 0.03
CC[C@H](C)[C@H](NC(=O)[C@H](CC(=O)O)NC(=O)[C@H](CCCNC(=N)N)NC(=O)[C@H](CC(=O)O)NC(=O)[C@H](CCCNC(=N)N)NC(=O)[C@H](CC(=O)O)NC(=O)[C@@H](NC(=O)[C@H](Cc1ccccc1)NC(=O)[C@H](Cc1c[nH]cn1)NC(=O)[C@H](CCCNC(=N)N)NC(=O)[C@H](CC(C)C)NC(=O)[C@H](Cc1ccccc1)NC(=O)[C@H](CC(=O)O)NC(=O)[C@H](C)NC(=O)[C@H](CC(C)C)NC(=O)[C@H](CCCNC(=N)N)NC(=O)[C@H](CCC(N)=O)NC(=O)[C@@H](NC(=O)[C@H](C)NC(=O)[C@H](C)NC(=O)[C@@H](NC(=O)[C@H](CO)NC(=O)[C@H](CC(C)C)NC(=O)[C@H](CCC(N)=O)NC(=O)[C@H](CO)NC(=O)[C@H](C)NC(=O)COCCOCCNC(=O)COCCOCCNC(=O)COCCOCCNC(=O)COCCOCCNC(=O)CC[C@H](NC(=O)CCCCCCCCCCCCCCCCCCC(=O)O)C(=O)O)[C@@H](C)O)[C@@H](C)O)[C@@H](C)O)C(=O)N[C@@H](CC(C)C)C(=O)N1CCC[C@H]1C(=O)N1CCC[C@H]1C(=O)N[C@H](C(=O)N[C@@H](CC(N)=O)C(=O)N[C@H](C(=O)NCC(=O)N[C@@H](CO)C(=O)N[C@@H](CC(N)=O)C(=O)N[C@H](C(=O)N1CCC[C@H]1C(N)=O)[C@@H](C)O)C(C)C)[C@@H](C)O [M24] ({C20 diacid-γGlu-AEEA-AEEA-AEEA-AEEA}-ASQLSTAATQRLADFLRHFTDRDRDILPPTNVGSNTP-NH2) | 47 | 0.066

The remaining lines, values ahead:

Relative activity [%] | EC50 [nM] | SMILES
40 | 0.132 | CC[C@H](C)[C@H](NC(=O)[C@@H]1CCCN1C(=O)[C@H](CCCCN)NC(=O)[C@H](CC(C)C)NC(=O)[C@H](CC(N)=O)NC(=O)[C@H](CC(N)=O)NC(=O)[C@H](CO)NC(=O)[C@H](CO)NC(=O)[C@H](Cc1c[nH]cn1)NC(=O)[C@H](CCCNC(=N)N)NC(=O)[C@H](CC(C)C)NC(=O)[C@H](Cc1ccccc1)NC(=O)[C@H](CC(=O)O)NC(=O)[C@H](C)NC(=O)[C@H](CC(C)C)NC(=O)[C@H](CCCNC(=N)N)NC(=O)[C@H](CCC(N)=O)NC(=O)[C@@H](NC(=O)[C@H](C)NC(=O)[C@H](C)NC(=O)[C@@H](NC(=O)[C@H](CO)NC(=O)[C@H](CC(C)C)NC(=O)[C@H](CCC(N)=O)NC(=O)[C@H](CO)NC(=O)[C@H](C)NC(=O)COCCOCCNC(=O)COCCOCCNC(=O)[C@H](CC(=O)O)NC(=O)CCCCCCCCCCCCCCCCCCC(=O)O)[C@@H](C)O)[C@@H](C)O)C(=O)N[C@@H](CC(C)C)C(=O)N1CCC[C@H]1C(=O)N1CCC[C@H]1C(=O)N[C@H](C(=O)N[C@@H](CC(N)=O)C(=O)N[C@H](C(=O)NCC(=O)N[C@@H](CO)C(=O)N[C@@H](CC(N)=O)C(=O)N[C@H](C(=O)N1C[C@H](O)C[C@H]1C(N)=O)[C@@H](C)O)C(C)C)[C@@H](C)O [M34] ({C20 diacid}-D[AEEA][AEEA]ASQLSTAATQRLADFLRHSSNNLKPILPPTNVGSNT[Hyp]-NH2)
 | 0.039 | CC[C@H](C)[C@H](NC(=O)[C@@H]1CCCN1C(=O)[C@H](CCCCN)NC(=O)[C@H](CC(C)C)NC(=O)[C@H](CC(N)=O)NC(=O)[C@H](CC(N)=O)NC(=O)[C@H](CO)NC(=O)[C@H](CO)NC(=O)[C@H](Cc1c[nH]cn1)NC(=O)[C@H](CCCNC(=N)N)NC(=O)[C@H](CC(C)C)NC(=O)[C@H](Cc1ccccc1)NC(=O)[C@H](CC(=O)O)NC(=O)[C@H](C)NC(=O)[C@H](CC(C)C)NC(=O)[C@H](CCCNC(=N)N)NC(=O)[C@H](CCC(N)=O)NC(=O)[C@@H](NC(=O)[C@H](C)NC(=O)[C@H](C)NC(=O)[C@@H](NC(=O)[C@H](CO)NC(=O)[C@H](CC(C)C)NC(=O)[C@H](CCC(N)=O)NC(=O)[C@H](CO)NC(=O)[C@H](C)NC(=O)C1CCN(C(=O)CCCCCCCCCCCCCCCCCCC(=O)O)CC1)[C@@H](C)O)[C@@H](C)O)C(=O)N[C@@H](CC(C)C)C(=O)N1CCC[C@H]1C(=O)N1CCC[C@H]1C(=O)N[C@H](C(=O)N[C@@H](CC(N)=O)C(=O)N[C@H](C(=O)NCC(=O)N[C@@H](CO)C(=O)N[C@@H](CC(N)=O)C(=O)N[C@H](C(=O)N1C[C@H](O)C[C@H]1C(N)=O)[C@@H](C)O)C(C)C)[C@@H](C)O [M30] ({C20 diacid-Inp}-ASQLSTAATQRLADFLRHSSNNLKPILPPTNVGSNT[Hyp]-NH2)
181 | 0.03 | CC[C@H](C)[C@H](NC(=O)[C@@H]1CCCN1C(=O)[C@H](CCCCN)NC(=O)[C@H](CC(C)C)NC(=O)[C@H](CC(N)=O)NC(=O)[C@H](CC(N)=O)NC(=O)[C@H](CO)NC(=O)[C@H](CO)NC(=O)[C@H](Cc1c[nH]cn1)NC(=O)[C@H](CCCNC(=N)N)NC(=O)[C@H](CC(C)C)NC(=O)[C@H](Cc1ccccc1)NC(=O)[C@H](CC(=O)O)NC(=O)[C@H](C)NC(=O)[C@H](CC(C)C)NC(=O)[C@H](CCCNC(=N)N)NC(=O)[C@H](CCC(N)=O)NC(=O)[C@@H](NC(=O)[C@H](C)NC(=O)[C@H](C)NC(=O)[C@@H](NC(=O)[C@H](CO)NC(=O)[C@H](CC(C)C)NC(=O)[C@H](CCC(N)=O)NC(=O)[C@H](CO)NC(=O)[C@H](C)NC(=O)CC[C@H](NC(=O)CCCCCCCCCCCCCCC(=O)O)C(=O)O)[C@@H](C)O)[C@@H](C)O)C(=O)N[C@@H](CC(C)C)C(=O)N1CCC[C@H]1C(=O)N1CCC[C@H]1C(=O)N[C@H](C(=O)N[C@@H](CC(N)=O)C(=O)N[C@H](C(=O)NCC(=O)N[C@@H](CO)C(=O)N[C@@H](CC(N)=O)C(=O)N[C@H](C(=O)N1C[C@H](O)C[C@H]1C(N)=O)[C@@H](C)O)C(C)C)[C@@H](C)O [M38] ({C16 diacid-γGlu}-ASQLSTAATQRLADFLRHSSNNLKPILPPTNVGSNT[Hyp]-NH2)
